Measured values taken from paper PMC5024318, “Crystal structures of the bifunctional tRNA methyltransferase Trm5a” (Scientific Reports, 2016).

Tests used:
PaTrm5a [1] = biological target: T1, PaTrm5a (Pyrococcus abyssi, UniProt Q9V2G1); experiment: X-ray crystal structure, cocrystallisation with SAM (MTA as its degradation product), […] Å; format: binding; conditions: PEG 3350, HEPES pH 7.5, Ca(OAc)2, KCl, 25 °C; SAM site in D3
T1 construct: gene taw22

PaTrm5a [2] = biological target: T1, PaTrm5a; experiment: X-ray crystal structure, cocrystallisation, […] Å; format: binding; conditions: PEG 3350, HEPES pH 7.5, Ca(OAc)2, KCl, 25 °C; SAM site in D3

T1 sequence (Q9V2G1 whole entry): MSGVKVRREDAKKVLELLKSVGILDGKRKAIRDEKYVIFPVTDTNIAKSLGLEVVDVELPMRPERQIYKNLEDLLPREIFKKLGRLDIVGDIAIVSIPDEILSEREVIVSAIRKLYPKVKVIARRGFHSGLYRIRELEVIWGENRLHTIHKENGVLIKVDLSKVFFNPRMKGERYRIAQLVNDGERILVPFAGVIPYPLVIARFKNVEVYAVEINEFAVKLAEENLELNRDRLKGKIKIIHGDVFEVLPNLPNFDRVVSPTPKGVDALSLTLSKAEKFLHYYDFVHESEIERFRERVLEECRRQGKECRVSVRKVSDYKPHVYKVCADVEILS

Row | Compound | X-ray crystal structure, cocrystallisation with SAM (MTA as its degradation prod) (PaTrm5a [1]) | X-ray crystal structure, cocrystallisation, 2.00 Å (PaTrm5a [2])
1 | CSC[C@H]1O[C@@H](n2cnc3c(N)ncnc32)[C@H](O)[C@@H]1O [MTA, 5′-methylthioadenosine] | MTA fits well in the ligand-binding pocket, and interacts with the enzyme | –
2 | Nc1ncnc2c1ncn2[C@@H]1O[C@H](CSCC[C@H](N)C(=O)O)[C@@H](O)[C@H]1O [SAH, S-adenosyl-L-homocysteine] | – | the adenosine moiety and the methionine group are specifically recognised by hydrogen bonding interactions
